Data as given in patent US10226451B2, “Substituted bicyclic compounds as bromodomain inhibitors” (ZENITH EPIGENETICS LTD, priority 2013, dated 2019).

Assays:
[1] = tested on: c-myc in Human AML MV4-11 cells; experiment: Inhibition of c-MYC expression (mRNA, real-time PCR) in MV4-11 cells; type: cell-based; conditions: 3 h, mRNA by real-time PCR
How it was run: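 Cells at 2.5×10^4 per well in IMDM/10% FBS were treated with rising compound concentrations or 0.1% DMSO for 3 h at 37° C., in triplicate. cMYC mRNA was measured by one-step TaqMan qRT-PCR, normalised to cyclophilin, and expressed as fold expression relative to control.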

[2] = tested on: hIL-17 mRNA in human peripheral blood mononuclear cells; experiment: Inhibition of hIL-17 mRNA transcription in OKT3-stimulated PBMC; type: cell-based; conditions: OKT3 antibody, 6 h, read-out: IL-17 activity
How it was run: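 Human PBMC in medium with 20 ng/ml IL-2 were pretreated 1 h at 37 °C with test compound or 0.1% DMSO, then stimulated with OKT3 (10 ug/ml 10× stock) for 6 h. IL-17 mRNA was measured by one-step TaqMan qRT-PCR, normalized to cyclophilin, and expressed as fold change versus control.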

[3] = tested on: hApoA-I mRNA in Huh7 cells; experiment: Up-regulation of hApoA-1 mRNA transcription in Huh7 cells; type: cell-based, Human; conditions: EC170, Huh7 cells, 48 h
Protocol: In this example, hApoA-I mRNA in tissue culture cells was quantitated to measure the transcriptional up-regulation of hApoA-I when treated with a compound of the present disclosure.
Huh7 cells (2.5×10^5 per well) were plated in a 96-well plate using 100 μL DMEM per well, (Gibco DMEM supplemented with penicillin/streptomycin and 10% FBS), 72 h before the addition of the compound. The cells are treated with increasing concentrations of the compound or DMSO (0.1%), and incubated at 37° C., 5% CO2 for 48 h. Spent media was removed from the Huh-7 cells and placed on ice for immediate use with the “LDH cytotoxicity assay Kit II” from Abcam. The cells remaining in the plate were rinsed with 100 μL PBS. Cells were harvested using the mRNA Catcher PLUS kit according to manufacturer's instructions. The eluted mRNA was then used in a one-step quantitative real-time PCR reaction, using components of the RNA UltraSense™ One-Step Kit (Life Technologies) together with Applied Biosystems TaqMan® primer-probes for hApoA-I and Cyclophilin. Real-time PCR plates were run on a ViiA™7 real time PCR machine (Applied Biosystems), data was analyzed, normalizing the Ct values for hApoA-1 to an internal control, prior to determining the fold induction of each unknown sample, relative to the control.

MV4-11 cells xenograft = experiment: In vivo efficacy, acute myeloid leukemia xenograft model using MV4-11 cells; set-up: species or system mouse; conditions: MV4-11 xenograft, nu/nu mice, oral dosing, tumor growth inhibition
Protocol: MV4-11 cells (ATCC) were grown under standard cell culture conditions and (NCr) nu/nu fisol strain of female mice age 6-7 weeks were injected with 5×10^6 cells/animal in 100 μL PBS+100 μL Matrigel in the lower left abdominal flank. By approximately day 18-21 after MV4-11 cells injection, mice were randomized based on tumor volume (L×W×H)/2) of average ˜100-300 mm^3. Mice were dosed orally with compound at 5 to 120 mg/kg b.i.d and/or q.d. on a continuous dosing schedule and at 2.5 to 85 mg/kg q.d. on a 5 day on 2 day off, 100 mg/kg q.d. on a 4 day on and 3 day off, 135 mg/kg q.d. on a 3 day on and 4 day off, 180 mg/kg on a 2 day on and 5 day off and 240 mg/kg on a 1 day on and 6 days off dosing schedules in EA006 formulation at 10 mL/kg body weight dose volume. Tumor measurements were taken with electronic micro calipers and body weights measured on alternate days beginning from dosing period. The average tumor volumes, percent Tumor Growth Inhibition (TGI) and % change in body weights were compared relative to Vehicle control animals. The means, statistical analysis and the comparison between groups were calculated using Student's t-test in Excel.

[4] = tested on: OCI-3 AML cells xenograft; experiment: In vivo efficacy, acute myeloid leukemia xenograft model using OCI-3 AML cells; set-up: species or system mouse; conditions: OCI-3 AML xenograft, nu/nu mice, oral dosing, tumor growth inhibition
Protocol: OCI-3 AML cells (DMSZ) were grown under standard cell culture conditions and (NCr) nu/nu fisol strain of female mice age 6-7 weeks were injected with 10×10^6 cells/animal in 100 μL PBS+100 μL Matrigel in the lower left abdominal flank. By approximately day 18-21 after OCI-3 AML cells injection, mice were randomized based on tumor volume (L×W×H)/2) of average ˜100-300 mm^3. Mice were dosed orally with compound at 30 mg/kg b.i.d on a continuous dosing schedule and at 2.5 to 45 mg/kg q.d. on a 5 day on and 2 day off dosing schedule in EA006 formulation at 10 mL/kg body weight dose volume. Tumor measurements were taken with electronic micro calipers and body weights measured on alternate days beginning from dosing period. The average tumor volumes, percent Tumor Growth Inhibition (TGI) and % change in body weights were compared relative to Vehicle control animals. The means, statistical analysis and the comparison between groups were calculated using Student's t-test in Excel.

IC50 [1]: ≤ 300 nM | IC50 [2]: ≤ 300 nM
SMILES: Cc1noc(C)c1-c1cc(-c2c(C)nn(C)c2C)c2c(c1)[nH]c(=O)n2C [Example Compound 9, 5-(3,5-dimethylisoxazol-4-yl)-1-methyl-7-(1,3,5-trimethyl-1H-pyrazol-4-yl)-1H-benzo[d]imidazol-2(3H)-one]
ApoA-1 activity [3]: +++ (EC170 value less than or equal to 0.3 μM were deemed to be highly active (+++)) | In vivo activity (MV4-11 cells xenograft): Active | In vivo activity [4]: Active
